Reference: patent US20240317760A1, “TRK KINASE INHIBITOR COMPOUND AND USE THEREOF” (HENAN MEDINNO PHARMACEUTICAL TECHNOLOGY CO., LTD., priority 2021, published 2024)

Legend:
Format in all cases: biochemical
[1] = target: T1, TRKC (Homo sapiens, UniProt Q16288); assay: Determination of inhibitory activity against TRKC kinase (ADP-Glo Kinase Assay); settings: ATP 5 μM, Poly (4:1 Glu, Tyr) Peptide 0.03 mg/ml
T1 construct: purchased Carna 08-196
Description: (§1) Assay: Determination of Inhibitory Activity Against TRKA/B/C Kinases
(§2) 1× volume of 5× kinase reaction buffer and 4× volume of water; 5 mM MgCl2; and 1 mM DTT.
(§3) • 1). Gradiently diluting a compound 4-fold in a dilution plate with DMSO, with a starting compound concentration of 1000 nM. • 2). Diluting the compound 50-fold into 1× kinase reaction buffer and shaking it on a shaker for 20 minutes. • 3). Formulating 2× kinase with 1× of enzyme reaction buffer. • 4). Adding 2 μl kinase (formulated in step 3) to each well of the reaction plate. • 5). Adding 1 μl of the compound diluted in buffer to each well, sealing the plate with a sealing membrane and centrifuging the plate at 1000 g for 30 seconds and leaving it at room temperature for 10 minutes. • 6). Formulating 4×ATP & sub mixture with 1× enzyme reaction buffer and adding 1 μl of 4×ATP & sub mixture to the reaction plate. • 7). Sealing the plate with a sealing membrane and centrifuging the plate at 1000 g for 30 seconds and allowing it to react at room temperature for 60 minutes. • 8). Transferring 4 μl of ADP-Glo to 384 reaction plate and centrifuging the plate at 1000 rpm/min for 1 min, and then incubating it at 25° C. for 40 min. • 9). Transferring 8 μl of Detection solution to 384 reaction plate and centrifuging the plate at 1000 rpm/min for 1 min and incubating it at 25° C. for 40 min. • 10) Reading the RLU (Relative luminescence unit) signal using a Biotek multifunctional plate reader. The signal intensity was used to characterize the activity degree of kinase.
(§4) The IC50 (half inhibition concentration) of a compound was obtained using the following non-linear fitting equation, wherein data analysis was performed using Graphpad 6.0 software.
(§5) Y=Bottom+(Top−Bottom)/(1+10^((Log IC50−X)*Hill Slope)) • X: log value of compound concentration; and Y: inhibition rate (% inhibition)
(§6) Data were exported from Biotek and analyzed manually. The ratios were converted to inhibition rates and IC50 was calculated by Prism GraphPad 6.0 from the inhibition rates. IC50 was calculated again by the ratios to verify accuracy of the results.

[2] = target: T2, TRKA (Homo sapiens, UniProt P04629); assay: Determination of inhibitory activity against TRKA kinase (ADP-Glo Kinase Assay); settings: ATP 5 μM, Poly (4:1 Glu, Tyr) Peptide 0.03 mg/ml
T2 construct: purchased Carna 08-186
T2 sequence (P04629 33-796): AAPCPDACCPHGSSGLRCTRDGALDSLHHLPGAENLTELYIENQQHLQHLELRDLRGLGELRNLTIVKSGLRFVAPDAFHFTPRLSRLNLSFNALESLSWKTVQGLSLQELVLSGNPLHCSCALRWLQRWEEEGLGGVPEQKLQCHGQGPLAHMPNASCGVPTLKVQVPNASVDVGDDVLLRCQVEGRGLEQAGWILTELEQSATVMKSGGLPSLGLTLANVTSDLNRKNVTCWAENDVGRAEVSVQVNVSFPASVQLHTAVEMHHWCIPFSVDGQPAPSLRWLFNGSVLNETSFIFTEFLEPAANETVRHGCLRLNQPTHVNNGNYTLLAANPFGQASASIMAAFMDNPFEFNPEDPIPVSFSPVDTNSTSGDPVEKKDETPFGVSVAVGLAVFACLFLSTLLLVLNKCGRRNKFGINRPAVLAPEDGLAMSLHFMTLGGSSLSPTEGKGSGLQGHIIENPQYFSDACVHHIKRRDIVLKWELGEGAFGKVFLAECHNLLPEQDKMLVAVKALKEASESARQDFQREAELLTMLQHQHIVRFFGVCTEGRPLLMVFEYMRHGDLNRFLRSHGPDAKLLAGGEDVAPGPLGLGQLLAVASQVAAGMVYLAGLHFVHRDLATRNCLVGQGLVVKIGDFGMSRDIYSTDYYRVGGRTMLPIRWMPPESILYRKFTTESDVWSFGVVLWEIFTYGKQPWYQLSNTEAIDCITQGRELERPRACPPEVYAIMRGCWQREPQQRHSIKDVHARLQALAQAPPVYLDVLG
Description: as §1, §2, §3, §4, §5, §6

[3] = target: T3, TRKB (Homo sapiens, UniProt Q16620); assay: Determination of inhibitory activity against TRKB kinase (ADP-Glo Kinase Assay); settings: ATP 20 μM, Poly (4:1 Glu, Tyr) Peptide 0.03 mg/ml
T3 construct: purchased SignalChem N17-11G
T3 sequence (Q16620 32-822): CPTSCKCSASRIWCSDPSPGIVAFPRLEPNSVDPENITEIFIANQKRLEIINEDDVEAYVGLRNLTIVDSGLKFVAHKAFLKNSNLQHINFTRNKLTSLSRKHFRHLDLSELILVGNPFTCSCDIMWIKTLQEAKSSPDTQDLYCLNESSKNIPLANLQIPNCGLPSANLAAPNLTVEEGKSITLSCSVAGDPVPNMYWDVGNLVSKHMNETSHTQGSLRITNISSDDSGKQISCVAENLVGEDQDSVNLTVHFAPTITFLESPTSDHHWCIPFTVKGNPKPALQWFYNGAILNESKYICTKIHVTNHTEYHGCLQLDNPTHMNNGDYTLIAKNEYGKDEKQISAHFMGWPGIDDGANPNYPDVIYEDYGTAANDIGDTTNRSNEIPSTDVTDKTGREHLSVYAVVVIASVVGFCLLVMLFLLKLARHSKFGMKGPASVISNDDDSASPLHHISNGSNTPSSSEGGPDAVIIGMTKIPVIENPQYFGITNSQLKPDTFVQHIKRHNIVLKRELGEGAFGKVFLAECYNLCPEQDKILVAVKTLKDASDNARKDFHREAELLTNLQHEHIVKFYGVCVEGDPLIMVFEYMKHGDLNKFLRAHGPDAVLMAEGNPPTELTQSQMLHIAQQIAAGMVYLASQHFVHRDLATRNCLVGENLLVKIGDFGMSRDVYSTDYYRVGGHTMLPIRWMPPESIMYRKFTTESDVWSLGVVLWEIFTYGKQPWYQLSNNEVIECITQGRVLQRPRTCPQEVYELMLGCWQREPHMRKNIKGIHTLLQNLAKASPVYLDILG
Description: as §1, §2, §3, §4, §5, §6

T1 sequence (Q16288 32-839): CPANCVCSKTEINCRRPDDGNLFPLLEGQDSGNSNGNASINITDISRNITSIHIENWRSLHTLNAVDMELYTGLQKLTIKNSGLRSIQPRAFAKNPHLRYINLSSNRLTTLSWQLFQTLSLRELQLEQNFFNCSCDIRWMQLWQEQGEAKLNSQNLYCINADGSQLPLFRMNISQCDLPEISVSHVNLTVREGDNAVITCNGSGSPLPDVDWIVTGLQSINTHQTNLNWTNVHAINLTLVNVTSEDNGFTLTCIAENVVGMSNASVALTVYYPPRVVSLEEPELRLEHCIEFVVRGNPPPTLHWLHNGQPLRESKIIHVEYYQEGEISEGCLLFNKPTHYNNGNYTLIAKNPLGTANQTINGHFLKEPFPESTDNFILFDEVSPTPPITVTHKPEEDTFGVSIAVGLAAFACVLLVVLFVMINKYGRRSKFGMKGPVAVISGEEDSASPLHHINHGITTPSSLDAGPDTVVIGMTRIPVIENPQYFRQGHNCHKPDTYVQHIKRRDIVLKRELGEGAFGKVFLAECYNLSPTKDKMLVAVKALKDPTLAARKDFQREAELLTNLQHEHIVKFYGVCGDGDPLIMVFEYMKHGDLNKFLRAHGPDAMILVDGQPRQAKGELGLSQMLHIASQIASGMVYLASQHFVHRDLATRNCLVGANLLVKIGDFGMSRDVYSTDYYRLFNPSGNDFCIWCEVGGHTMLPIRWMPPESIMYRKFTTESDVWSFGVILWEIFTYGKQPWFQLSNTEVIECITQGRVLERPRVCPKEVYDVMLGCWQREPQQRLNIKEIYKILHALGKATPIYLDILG

IC50 [1] [nM]	IC50 [2] [nM]	IC50 [3] [nM]	Compound
0.86	0.75	0.65	CC(Oc1ccc2[nH]nc(-c3nc4c([nH]3)CN(CC3CCN(C)CC3)C4)c2c1)c1cc(F)cc(F)c1 (stereo not drawn) [Example 15]
4.6	1.7	28	C[C@H](Oc1ccc2[nH]nc(-c3nc4c([nH]3)CN(CC3CCN(C)CC3)C4)c2c1)c1cc(F)cc(F)c1 [Example 9]
0.51	0.47	0.82	CC(Oc1ccc2[nH]nc(-c3nc4c([nH]3)CN(CC3CCN(C(C)C)CC3)C4)c2c1)c1cc(F)cc(F)c1 (stereo not drawn) [Example 22]
3.1	2	2.4	CC(Oc1ccc2[nH]nc(-c3nc4c([nH]3)CN(C3CCN(C)CC3)C4)c2c1)c1cc(F)cc(F)c1 (stereo not drawn) [Example 4, 5-(1-(3,5-difluorophenyl)ethoxy)-3-(5-(1-methylpiperidin-4-yl)-1,4,5,6-tetrahydropyrrolo[3,4-d]imidazol-2-yl)-1H-indazole]
1.1	0.59	1.5	CC(Oc1ccc2[nH]nc(-c3nc4c([nH]3)CN(C(C)C3CCN(C)CC3)C4)c2c1)c1cc(F)cc(F)c1 (stereo not drawn) [Example 23, 5-(1-(3,5-Difluorophenyl)ethoxy)-3-(5-(1-(1-methylpiperidin-4-yl)ethyl)-1,4,5,6-tetrahydropyrrolo[3,4-d]imidazol-2-yl)-1H-indazole]
1.8	1.3	1.9	CC(Oc1ccc2[nH]nc(-c3nc4c([nH]3)CN(CC3CCNCC3)C4)c2c1)c1cc(F)cc(F)c1 (stereo not drawn) [Example 16, 5-(1-(3,5-Difluorophenyl)ethoxy)-3-(5-(piperidin-4-ylmethyl)-1,4,5,6-tetrahydropyrrolo[3,4-d]imidazol-2-yl)-1H-indazole]
11.5	3.5	9.5	CN1CCC(N2Cc3nc(-c4n[nH]c5ccc(Cc6cc(F)cc(F)c6)cc45)[nH]c3C2)CC1 [Example 14, 5-(3,5-Difluorobenzyl)-3-(5-(1-methylpiperidin-4-yl)-1,4,5,6-tetrahydropyrrolo[3,4-d]imidazol-2-yl)-1H-indazole]
2.3	6.8	1	CC(Oc1ccc2[nH]nc(-c3nc4c([nH]3)CN(C3CC5(C3)CN(C)C5)C4)c2c1)c1cc(F)cc(F)c1 (stereo not drawn) [Example 39, 5-(1-(3,5-Difluorophenyl)ethoxy)-3-(5-(2-methyl-2-azaspiro[3.3]heptan-6-yl)-1,4,5,6-tetrahydropyrrolo[3,4-d]imidazol-2-yl)-1H-indazole]
2	2.8	5.5	CC(Oc1ccc2[nH]nc(-c3nc4c([nH]3)CN(CC3CN(C)C3)C4)c2c1)c1cc(F)cc(F)c1 (stereo not drawn) [Example 26, 5-(1-(3,5-Difluorophenyl)ethoxy)-3-(5-((1-methylazetidin-3-yl)methyl)-1,4,5,6-tetrahydropyrrolo[3,4-d]imidazol-2-yl)-1H-indazole]
11	6.4	5.5	CS(=O)(=O)N1Cc2nc(-c3n[nH]c4ccc(Cc5cc(F)cc(F)c5)cc34)[nH]c2C1 [Example 3, 5-(3,5-difluorobenzyl)-3-(5-(methylsulfonyl)-1,4,5,6-tetrahydropyrrolo[3,4-d]imidazol-2-yl)-1H-indazole]
3.6	4.1	1.9	CCN1CCC(N2Cc3nc(-c4n[nH]c5ccc(OC(C)c6cc(F)cc(F)c6)cc45)[nH]c3C2)CC1 (stereo not drawn) [Example 38, 5-(1-(3,5-Difluorophenyl)ethoxy)-3-(5-(1-ethylpiperidin-4-yl)-1,4,5,6-tetrahydropyrrolo[3,4-d]imidazol-2-yl)-1H indazole]
2.9	10.6	1.4	CC(Oc1ccc2[nH]nc(-c3nc4c([nH]3)CN(C3CCC(N(C)C)C3)C4)c2c1)c1cc(F)cc(F)c1 (stereo not drawn) [Example 46, 3-(2-(5-(1-(3,5-Difluorophenyl)ethoxy)-1H-indazol-3-yl)-4,6-dihydropyrrolo[3,4-d]imidazol-5(1H)-yl)-N,N-dimethyl cyclopentan-1-amine]
1.1	1.1	4.3	CC(Oc1ccc2[nH]nc(-c3nc4c([nH]3)CN(C(=O)OC3CN(C)C3)C4)c2c1)c1cc(F)cc(F)c1 (stereo not drawn) [Example 31, 1-Methylazetidin-3-yl 2-(5-(1-(3,5-difluorophenyl)ethoxy)-1H-indazol-3-yl)-4,6-dihydropyrrolo[3,4-d]imidazole-5(1H)-carboxylate]
9.2	6.9	4.4	O=C(C1CC1)N1Cc2nc(-c3n[nH]c4ccc(Cc5cc(F)cc(F)c5)cc34)[nH]c2C1 [Example 13, Cyclopropyl(2-(5-(3,5-difluorobenzyl)-1H-indazol-3-yl)-4,6-dihydropyrrolo [3,4-d]imidazol-5(1H)-yl)ketone]
4.1	1.2	4.8	CC(=O)N1CCC(CN2Cc3nc(-c4n[nH]c5ccc(OC(C)c6cc(F)cc(F)c6)cc45)[nH]c3C2)CC1 (stereo not drawn) [Example 19, 1-(4-((2-(5-(1-(3,5-Difluorophenyl)ethoxy)-1H-indazol-3-yl)-4,6-dihydropyrrolo[3,4-d]imidazol-5(1H)-yl)methyl)piperidin-1-yl)ethan-1-one]
7.7	7.4	3	CC(Oc1ccc2[nH]nc(-c3nc4c([nH]3)CN(C3CCN(C)C3)C4)c2c1)c1cc(F)cc(F)c1 (stereo not drawn) [Example 41, 5-(1-(3,5-Difluorophenyl)ethoxy)-3-(5-(1-methylpyrrolidin-3-yl)-1,4,5,6-tetrahydropyrrolo[3,4-d]imidazol-2-yl)-1H indazole]
0.43	0.23	0.63	C[C@@H](Oc1ccc2[nH]nc(-c3nc4c([nH]3)CN(CC3CCN(C)CC3)C4)c2c1)c1cc(F)cc(F)c1 [Example 32]
3.3	3.5	3.4	Fc1cc(F)cc(CNc2ccc3[nH]nc(-c4nc5c([nH]4)CN(CC4CCNCC4)C5)c3c2)c1 [Example 2, N-(3,5-difluorobenzyl)-3-(5-(piperidin-4-ylmethyl)-1,4,5,6-tetrahydropyrrolo[3,4-d]imidazol-2-yl)-1H-indazol-5-amine]
8.6	14.2	8.9	CC(Oc1ccc2[nH]nc(-c3nc4c([nH]3)CN(CC3CCN(C)CC3)C4)c2c1)c1cc(F)cc(C#N)c1 (stereo not drawn) [Example 47]
1.5	0.66	4.2	CCN1CCC(CN2Cc3nc(-c4n[nH]c5ccc(OC(C)c6cc(F)cc(F)c6)cc45)[nH]c3C2)CC1 (stereo not drawn) [Example 17]
1.8	1.5	2.2	CC(Oc1ccc2[nH]nc(-c3nc4c([nH]3)CN(C(=O)N3CCN(C)CC3)C4)c2c1)c1cc(F)cc(F)c1 (stereo not drawn) [Example 29, (2-(5-(1-(3,5-Difluorophenyl)ethoxy)-1H-indazol-3-yl)-4,6-dihydropyrrolo[3,4-d]imidazol-5(1H)-yl)(4-methylpiperazin-1-yl)ketone]
1.5	0.8	1.1	CC(Oc1ccc2[nH]nc(-c3nc4c([nH]3)CN(CCN(C)C)C4)c2c1)c1cc(F)cc(F)c1 (stereo not drawn) [Example 18, 2-(2-(5-(1-(3,5-Difluorophenyl)ethoxy)-1H-indazol-3-yl)-4,6-dihydropyrrolo[3,4-d]imidazol-5(1H)-yl)-N,N-dimethyl ethan-1-amine]
2.5	1.8	6.8	CC(Oc1ccc2[nH]nc(-c3nc4c([nH]3)CN(CCC3CCN(C)CC3)C4)c2c1)c1cc(F)cc(F)c1 (stereo not drawn) [Example 21, 5-(1-(3,5-Difluorophenyl)ethoxy)-3-(5-(2-(1-methylpiperidin-4-yl)ethyl)-1,4,5,6-tetrahydropyrrolo[3,4-d]imidazol-2-yl)-1H-indazole]
1.4	0.97	3.2	CC(Oc1ccc2[nH]nc(-c3nc4c([nH]3)CN(C(=O)OCCN(C)C)C4)c2c1)c1cc(F)cc(F)c1 (stereo not drawn) [Example 6, 2-(Dimethylamino)ethyl 2-(5-(1-(3,5-difluorophenyl)ethoxy)-1H-indazol-3-yl)-4,6-dihydropyrrolo[3,4-d]imidazole-5(1H)-carboxylate]
4.5	4.6	2	CC(Oc1ccc2[nH]nc(-c3nc4c([nH]3)CN(C(C)C3CN(C)C3)C4)c2c1)c1cc(F)cc(F)c1 (stereo not drawn) [Example 34, 5-(1-(3,5-Difluorophenyl)ethoxy)-3-(5-(1-(1-methylazetidin-3-yl)ethyl)-1,4,5,6-tetrahydropyrrolo[3,4-d]imidazol-2-yl)-1H-indazole]
